Assay in all cases: NCI-60 cell line screen, 48 h
Test [1] relates to NCI/ADR-RES ovarian.
The subject of test [2] is A498 renal.
Test [3] deals with NCI-H460 lung.
In test [4] the test system is SN12C renal.
For test [5], the system named is DMS 114 small cell lung.
Test [6] concerns HCT-15 colon.
The test system of test [7] is NCI-H23 lung.
Test [8] has as its system MOLT-4 leukemia.
Test [9] relates to HOP-92 NSCLC.
Test [10] relates to SNB-75 CNS.
Test [11] has as its system XF 498 CNS.
In test [12] the test system is HOP-18 NSCLC.
In test [13] the test system is OVCAR-8 ovarian.
For test [14], the system named is UO-31 renal.
Test [15] has as its system DLD-1 colon.
The subject of test [16] is PC-3 prostate.
Test [17] has as its system MDA-MB-231 breast.
For test [18], the system named is T-47D breast.
For test [19], the system named is MDA-MB-435.
Test [20] relates to TK-10 renal.

Each structure is given as a SMILES string.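 Compound exposure: 48 hours, 5 concentrations, 96-well plates. TGI: total growth inhibition.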

Consider `CCCN1C(=O)/C(=C(/O)C(=O)OCC)C(c2ccc(OC)c(OC)c2)C1=O` (stereo unspecified), for which the TGI in [1] was > 100 µM; in test [2] it was > 100 µM; in test [3], > 31.6 µM; in [4], > 100 µM; in test [5], > 100 µM; in test [6], > 100 µM. Besides, the TGI in test [7], in test [8], in [9], in test [10], in test [11] and in test [12] was > 100 µM each time. Moreover, the TGI in test [13], in test [14] and in test [15] was > 100 µM in each case.

On to `COc1cc(-c2coc3c(OC)c(OC4OC(COC5OC(C)C(O)C(O)C5O)C(O)C(O)C4O)c(OC)c(O)c3c2=O)cc(C)c1O` (stereo unspecified), for which the TGI in [16] was 74.1 µM; in test [1] it was 52.5 µM; in test [17], > 100 µM; in test [3] it was 82.6 µM; in [6], 40.9 µM; in [7], 32.4 µM. Further, the TGI is 19.4 µM in test [8]; 65 µM in [9]; 69.6 µM in [10]; 61.4 µM in test [18]; > 100 µM in test [13]; 75.2 µM in test [19]. Further, the TGI in test [20] was > 100 µM; in [14], 50.5 µM.

On to `O=c1cc2cc(O)[nH]c(=O)c2c(O)[nH]1`, for which the TGI in [2], in test [3], in test [4], in [5], in [6] and in test [7] was > 100 µM in each case. Further, the TGI in test [8], in [9], in test [10], in test [11], in test [20] and in test [14] was > 100 µM in each case. Besides, in test [15], the TGI is > 100 µM.

Turning to `CC(C)(C)c1cc(C2NC(=O)NC2=O)cc(C(C)(C)C)c1O` (stereo unspecified), the TGI in [16], in [1], in test [17], in [2], in [6] and in [7] was > 100 µM throughout. Besides, the TGI was > 100 µM in test [8]; > 100 µM in test [9]; 84.4 µM in [10]; > 100 µM in test [18]; > 100 µM in [13]; > 100 µM in test [19]. For the same compound, the TGI is 95.2 µM in test [20] and > 100 µM in test [14].

For the compound `CC(=O)OC1C(O)C(C)OC(OC(=O)C2CCC3C(C2)OC2(CC(OC(=O)/C=C/c4ccccc4)C(C)CO2)C32CO2)C1OC1OC(C)C(O)C(O)C1O` (stereo unspecified), the TGI in test [1] was 146 µM; in test [2] it was 0.315 µM; in [3], 0.236 µM; in [4], 0.833 µM; in [5], 0.0563 µM; in test [6], 39.2 µM. Besides, the TGI in test [7] came to 0.22 µM; in [8], 5.05 µM; in test [9], 0.0396 µM; in test [10], 0.135 µM; in [11] it was 0.126 µM; in test [12] it was 0.585 µM. In addition, the TGI in test [13] amounted to 0.823 µM; in test [14], 33.2 µM; in test [15], 5.69 µM.

The record behind these values is PubChem BioAssay (NCI).
